Values of other authors in publication PMC10366102, “Dose escalation and expansion cohorts in patients with advanced breast cancer in a Phase I study of the CDK7-inhibitor samuraciclib” (Nature Communications, 2023).

What was measured:
[1] = test system: PIK3CA-mutated HR+ advanced breast cancer; design: method as in PMID 33794206; details: PIK3CA mutation, post CDK4/6 inhibitor; cited from earlier work
[2] = test system: HR+ metastatic breast cancer; design: method as in PMID 33230905; details: after CDK4/6 inhibitor; cited from earlier work

| Structure (SMILES) | Median PFS [1] | Median duration of treatment [2] |
| --- | --- | --- |
| Cc1nc(NC(=O)N2CCC[C@H]2C(N)=O)sc1-c1ccnc(C(C)(C)C(F)(F)F)c1 [Alpelisib] | 7.3 months | – |
| CO[C@H]1C[C@@H]2CC[C@@H](C)[C@@](O)(O2)C(=O)C(=O)N2CCCC[C@H]2C(=O)O[C@H]([C@H](C)C[C@@H]2CC[C@@H](OCCO)[C@H](OC)C2)CC(=O)[C@H](C)/C=C(\C)[C@@H](O)[C@@H](OC)C(=O)[C@H](C)C[C@H](C)/C=C/C=C/C=C/1C [everolimus] | – | 3.6 months |
